Measured values from the supplement of paper PMC12137928.
Where a name gives a salt, the structure may show the parent alone.

Tested on: HCT116
Conditions: 72 h
Summary of the method: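 In 1536-well plates, 250 HCT116 cells per well were seeded and left for 5 h to attach. Luminescence from CellTiter-Glo was set against vehicle (0%) and positive control (-100%), and pattern correction was applied. IC50 and maximal efficacy come from four-parameter Hill fitting.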

Structure (SMILES) | IC50 cell viability (ICRF193 0 nM) [µM] | IC50 cell viability (ICRF193 200 nM) [µM]
CCCCC[C@H](O)C=C[C@@H]1[C@@H](C/C=C/CCCC(=O)O)[C@H](O)C[C@H]1O [5-trans Prostaglandin F2?] | > 45.8 | > 45.8
CC(C)CCC[C@@H](C)[C@H]1CC[C@H]2[C@@H]3CC[C@H]4C[C@@H](O)CC[C@]4(C)[C@H]3CC[C@]12C [5alpha-Cholestan-3beta-ol] | > 45.8 | > 45.8
CC1(C)S[C@@H]2[C@H](N)C(=O)N2[C@H]1C(=O)O [6-Aminopenicillanic acid] | > 45.8 | > 45.8
Cn1c(=O)c2[nH]c(Br)nc2n(C)c1=O [8-Bromotheophylline] | > 45.8 | > 45.8
Oc1cccc2cccnc12 [8-Quinolinol Salicylic acid (1:1)] | > 45.8 | > 45.8
CCCCC/C=C/C/C=C/CCCCCCCC(=O)O [9(E),12(E)-Octadecadienoic acid] | > 45.8 | > 45.8
CCCCCC/C=C\CCCCCCCC(=O)O [9(Z)-Hexadecenoic acid] | > 45.8 | > 45.8
CCC(=O)Oc1ccc2c(c1)CCC1C2CCC2(C)C(OC(=O)CC)CCC12 (stereo not drawn) [17-BETA-ESTRADIOL 3,17-DIPROPIONATE] | > 45.8 | > 45.8
CC(C)[C@H]1CC[C@H](C)C[C@@H]1O [(1S,2R,5S)-(+)-Menthol] | > 45.8 | > 45.8
O=C/C=C/c1ccccc1 [(2E)-3-Phenylprop-2-enal] | > 45.8 | > 45.8
CCCCCC[C@@H](CCC)C(=O)O [(2R)-2-Propyloctanoic acid] | > 45.8 | > 45.8
O=C(O)[C@@H](S)[C@H](S)C(=O)O [(2R,3R)-2,3-Dimercaptosuccinic acid] | > 45.8 | > 45.8
CC(C)[C@@H]1CC[C@@H](C)CC1=O [(2S,5R)-5-Methyl-2-(propan-2-yl)cyclohexanone] | > 45.8 | > 45.8
Nc1ccc([As](=O)(O)O)cc1 [(4-Aminophenyl)arsonic acid] | > 45.8 | > 45.8
C[C@H](O)[C@H](O)[C@H]1CNc2nc(N)[nH]c(=O)c2N1 [(6R)-5,6,7,8-Tetrahydrobiopterin dihydrochloride] | > 45.8 | > 45.8
C=C1CC[C@H](O)C/C1=C/C=C1\CCC[C@]2(C)[C@@H]([C@H](C)CC[C@H](O)C(C)(C)O)CC[C@@H]12 [(24S)-24,25-Dihydroxyvitamin D3] | > 45.8 | > 45.8
CC(C)=CCN1CC[C@]2(C)c3cc(O)ccc3C[C@H]1[C@H]2C [(+)-Pentazocine succinate] | > 45.8 | > 45.8
CCN(CC)C(=O)N[C@@H]1C=C2c3cccc4[nH]cc(c34)C[C@@H]2N(C)C1 [(-)-(5S,8R)-Lisuride] | > 45.8 | > 45.8
COC(=O)[C@H]1[C@@H](OC(=O)c2ccccc2)C[C@@H]2CC[C@H]1N2C [(-)-Cocaine hydrochloride] | > 45.8 | > 45.8
CC(C)(C)NC[C@H](O)COc1nsnc1N1CCOCC1 [(S)-Timolol] | > 45.8 | > 45.8
Nc1nc(NC2CC2)c2ncn([C@H]3C=C[C@@H](CO)C3)c2n1 [ABACAVIR SULFATE] | > 45.8 | > 45.8
NCCCC(O)(P(=O)(O)O)P(=O)(O)O [ALENDRONATE SODIUM] | > 45.8 | > 45.8
CC(=O)OCC(=O)[C@@]12OC3(CCCC3)O[C@@H]1C[C@H]1[C@@H]3CCC4=CC(=O)C=C[C@]4(C)[C@@]3(F)[C@@H](O)C[C@@]12C [AMCINONIDE] | > 45.8 | > 45.8
CN[C@@H]1[C@@H](O[C@H]2O[C@H](CO)[C@@H](N)[C@H](O)[C@H]2O)OC2C[C@@H](N)[C@@H](O[C@H]3[C@H](O)[C@@H](O)[C@H](N)C[C@@H]3N)OC2[C@@H]1O (stereo partly drawn) [APRAMYCIN SULFATE] | > 45.8 | > 45.8
OCC(O)C(O)C(O)CO (stereo not drawn) [ARABITOL(D)] | > 45.8 | > 45.8
Nc1ncnc2c1ncn2[C@@H]1O[C@H](COP(=O)(O)OP(=O)(O)OP(=O)(O)O)[C@@H](O)[C@H]1O [ATP (disodium salt)] | > 45.8 | > 45.8

Next, values leading:

IC50 cell viability (ICRF193 0 nM) [µM] | IC50 cell viability (ICRF193 200 nM) [µM] | Structure (SMILES)
> 45.8 | > 45.8 | Cc1cc(O)c(C(C)C)cc1Cl [6-Chlorothymol]
> 45.8 | > 45.8 | COc1cc2c3cc1Oc1cc(ccc1O)C[C@@H]1c4c(cc(OC)c(O)c4Oc4ccc(cc4)C[C@@H]3N(C)CC2)CC[N+]1(C)C [(+)-Tubocurarine chloride hydrochloride]
> 45.8 | > 45.8 | Oc1cc(O)c2c(c1)O[C@H](c1ccc(O)c(O)c1)[C@H](O)C2 [(-)-Epicatechin]
> 45.8 | > 45.8 | O=c1[nH]cnc2c1ncn2[C@@H]1O[C@H](CO)[C@@H](O)[C@H]1O [(-)-Inosine]
> 45.8 | > 45.8 | COc1cc(CNC(=O)CCCC/C=C/C(C)C)ccc1O [(E)-Capsaicin]
> 45.8 | > 45.8 | Cc1c(OCC(F)(F)F)ccnc1C[S@@+]([O-])c1nc2ccccc2[nH]1 [(R)-Lansoprazole]
> 45.8 | > 45.8 | CC[C@@]1(c2ccccc2)NC(=O)N(C)C1=O [(S)-Mephenytoin]
> 45.8 | > 45.8 | Cn1nnc(-c2ccc(-c3ccc(N4C[C@@H](CO)OC4=O)cc3F)cn2)n1 [(S)-Tedizolid]
> 45.8 | > 45.8 | CN1CC(O)c2cc(N=NC(=N)N)c(O)cc21 (stereo not drawn) [ADRENOCHROME MONOAMINOGUANIDINE MESILATE ANHYDROUS]
> 45.8 | > 45.8 | CCOC(=O)[C@H](C)C[C@@H](Cc1ccc(-c2ccccc2)cc1)NC(=O)CCC(=O)O [AHU-377]
> 45.8 | > 45.8 | Cn1c(=O)cc(N2CCC[C@@H](N)C2)n(Cc2ccccc2C#N)c1=O [ALOGLIPTIN BENZOATE]
> 45.8 | > 45.8 | O=C1c2c(O)cccc2C([C@@H]2O[C@H](CO)[C@@H](O)[C@H](O)[C@H]2O)c2cc(CO)cc(O)c21 (stereo partly drawn) [ALOIN]
> 45.8 | > 45.8 | CC1(C)S[C@@H]2[C@H](NC(=O)[C@H](N)c3ccccc3)C(=O)N2[C@H]1C(=O)O [AMPICILLIN SODIUM]
> 45.8 | > 45.8 | OB1OCc2cc(F)ccc21 [AN-2690]
> 45.8 | > 45.8 | N#Cc1ccc(Oc2ccc3c(c2)COB3O)cc1 [AN-2728]
> 45.8 | > 45.8 | CCCCCCCCCCCC(=O)OCN1C(=O)CCc2ccc(OCCCCN3CCN(c4cccc(Cl)c4Cl)CC3)cc21 [ARIPIPRAZOLE LAUROXIL]
> 45.8 | > 45.8 | O=C1N=C(N2CCOCC2)CN1c1ccc(Cl)cc1 [AWD 131-138]
> 45.8 | > 45.8 | CC1(C)S[C@@H]2[C@H](NC(=O)[C@H](NC(=O)N3CCNC3=O)c3ccccc3)C(=O)N2[C@H]1C(=O)O [AZLOCILLIN SODIUM]
